Measured values as given in PMC6656724 (Communications Biology, 2019).

Key:
[1] = molecular target: T1, PfKMO (Pseudomonas fluorescens, UniProt Q84HF5, C252S/C461S); assay: biochemical
T1 construct: made in house; host or cells: E. coli BL21 (DE3)
Procedure: saturating concentrations of the L-KYN and NADPH substrates. Data are plotted […]
consumption of NADPH at 340 nm upon addition of enzyme via a Cary 50 UV-Vis spectrophotometer (Agilent Technologies). Rates were determined from linear regression fits to the initial linear portion of the curves. All measurements were performed in triplicate. The IC50 values for inhibitors were obtained by plotting the percentage inhibition versus the inhibitor concentration and fitting to the Morrison equation16 (equation 1) using Origin 9.0 Software (OriginLab, Northampton, MA).
E + I + K!"" − E + I + K!"" ! − 4[E][I] where v0 is the enzyme activity without inhibitor, vi is the enzyme activity with ligand concentration [I], [E] is the enzyme concentration, [I] is the inhibitor concentration, K!"" is the apparent inhibition constant and IC = K!"" + [!] . If K!"" ≫ [!], IC ≈ […]
where Ki is the inhibition constant, [S] is the substrate concentration used in the assay and Km is the Michaelis-Menten constant17. […]
between Ki and Ki apparent values, as the conditions for measuring IC50 are different, Ki values can be used to compare with other reported KMO inhibitors.
Steady-state kinetic parameters for PfKMO were calculated by measuring initial rates […]
the observed rate of turnover (v) versus the varied substrate concentration were fitted to equation 2 using Origin 9.0 Software (OriginLab, Northampton, MA).
A B + K!! B + K!! A + K!!K!! where v is the initial rate of activity, Vmax is the maximum velocitie of the reaction, [A] and [B] are the substrate concentration, K!! and K!! are the Michaelis-Menten constant for different substrate and K!! is the inhibition (binding) constant of substrate A to the free enzyme while forming transitory complexes.18
Product inhibition studies were carried out by measuring reaction rates at varying […]
one substrate and varying concentrations of the other substrate. Inhibition studies with target compounds were carried out by measuring reaction rates at varying inhibitor concentrations at saturating concentrations of one substrate and varying concentrations of the other substrate. […]
were used to distinguish between different types of inhibition. The data were fitted to a straight line defined by the Lineweaver-Burke equation (equation 4), with the y intercept providing 1/Vmax and the x intercept giving -1/Km. […]

[2] = Brain tissue binding (equilibrium dialysis); assay type: in vitro ADME; settings: mouse, brain homogenate
Procedure: tissues were diluted (brain: 1:10, w/v; liver: 1:10,000, w/v) with Krebs buffer containing 100 mM Tris-HCl (pH 8.1), 10 mM KCl and 1 mM EDTA, and sonicated.
80 µl of the resulting tissue homogenates were incubated for 40 min at 37 °C with 20 µl aliquots of aqueous solutions of the test compounds (or water in controls), 10 µM kynurenine, 1 mM NADPH, 3 mM glucose-6-phosphate and 1U/ml glucose-6-phosphate dehydrogenase in a total volume of 200 µl. The reaction was terminated by the addition of 50 µl of 6% perchloric acid, the denatured proteins were removed by centrifugation, and newly synthesized 3-HK was quantified by HPLC with electrochemical detection (Coulochem 5100A; ESA, Chelmsford, MA) at an oxidation potential of […].
The methodology employed was a modification of that reported previously20. […]
for 1 minute and then centrifuged at 3000 rpm in 96-well blocks for 15 minutes (Allegra X12-R, Beckman Coulter, USA). All samples were analysed by means of UPLC/MS/MS on a Xevo TQs micro Mass Spectrometer (Waters Corporation, USA).
The unbound fraction was determined as the ratio of the peak area in artificial CSF to that in brain, with correction for dilution factor according to equation (5)21, […]
((1/f ! ,!""!#$%& ) − 1) + 1/D where D = dilution factor in brain homogenate and fu,apparent is the measured free fraction of diluted brain homogenate. […]

[3] = Stability in rat hepatocytes

T1 sequence (Q84HF5 whole entry C252S/C461S): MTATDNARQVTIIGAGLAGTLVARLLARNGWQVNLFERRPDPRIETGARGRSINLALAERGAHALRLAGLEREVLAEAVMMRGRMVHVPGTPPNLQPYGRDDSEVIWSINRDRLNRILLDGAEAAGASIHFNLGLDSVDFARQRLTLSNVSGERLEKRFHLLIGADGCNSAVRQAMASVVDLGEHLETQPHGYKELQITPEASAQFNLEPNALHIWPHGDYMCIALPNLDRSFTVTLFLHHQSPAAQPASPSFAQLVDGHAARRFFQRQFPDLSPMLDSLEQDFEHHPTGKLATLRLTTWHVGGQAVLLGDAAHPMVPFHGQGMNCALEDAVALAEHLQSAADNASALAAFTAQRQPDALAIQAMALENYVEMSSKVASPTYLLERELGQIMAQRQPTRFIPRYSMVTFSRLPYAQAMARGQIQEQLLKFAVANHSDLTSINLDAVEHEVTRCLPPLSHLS

Row | SMILES | Ki [1] | fraction unbound at 5 h, 10 µg/g [2] | Mean intrinsic clearance [3] | Mechanism of inhibition with respect to L-KYN ([1]; PfKMO) | Mechanism of inhibition with respect to NADPH ([1]; PfKMO)
1 | Cc1cc2c(c(C)c1Cl)N(Cc1nn[nH]n1)C(=O)CO2 [1h, 6-chloro-5,7-dimethyl-4-(2H-tetrazol-5-ylmethyl)-1,4-benzoxazin-3-one] | 1.06 ± 0.04 µM |  |  |  | 
2 | CCOC(=O)CN1C(=O)COc2cc(C)c(Cl)c(C)c21 [1b] |  | 0.016 | > 50 mL/min/g liver |  | 
3 | Cc1cc2c(c(C)c1Cl)N(CC(=O)O)C(=O)CO2 [compound 1, (6-chloro-5,7-dimethyl-3-oxo-2,3-dihydro-4H-1,4-benzoxazin-4-yl) acetic acid] |  | 0.3 | 0.8 mL/min/g liver | competitive inhibitor | mixed type inhibitors
